Like-named read-outs stand apart in the source and are kept apart here.
Experiments:
[1] = target: T1, first (BD1: amino acids K57-E168) bromodomain of BRD4 (Homo sapiens, UniProt O60885); test: TR-FRET bromodomain binding assay, BRD4 BD1; conditions: Ki calculated from IC50, probe Kd and probe concentration, read-out: TR-FRET Binding Ki: BRD4 (BDI_K57-E168)
T1 construct: His-tagged first (BD1: amino acids K57-E168)
Method in brief: (§1)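 Displacement of an Alexa647-labelled BET-inhibitor from His-tagged BD1 (K57-E168) or BD2 ([…]) measured by TR-FRET in pH 6.0 sodium phosphate buffer with NaCl, EDTA, Triton X-100 and DTT.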

[2] = tested on: breast cancer cell line MX-1; test: MX-1 cell line proliferation assay (3-day); assay type: cell-based; conditions: Homo sapiens, MX1, MX-1 cells, Cell Titer Glo, read-out: Cellular proliferation: EC50
Method in brief: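 MX-1 cells in RPMI/10% FBS, plated 5000/well overnight, then exposed to compound at final 3 to 0.0001 μM (3-fold series) for 3 days at 37° C. Cell Titer Glo luminescence normalized to DMSO-treated cells; EC50 from sigmoidal curve fit.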

[3] = target: T2, second (BD2: amino acids E352-E168) bromodomain of BRD4 (Homo sapiens, UniProt O60885); test: TR-FRET bromodomain binding assay, BRD4 BD2; conditions: Ki calculated from IC50, probe Kd and probe concentration, read-out: TR-FRET Binding Ki: BRD4 (BDII_E352-M457)
T2 construct: protocol
Method in brief: as §1

[4] = TR-FRET assay protocol (A-G, compound concentration range)
[5] = TR-FRET assay protocol (D, E or G) per compound

**Q.** For `Cn1cc(-c2cc(NS(C)(=O)=O)ccc2OC2CCOC2)ccc1=O` (stereo not drawn) [Example 249, N-[3-(1-methyl-6-oxo-1,6-dihydropyridin-3-yl)-4-(tetrahydrofuran-3-yloxy)phenyl]methanesulfonamide], which Ki [1, 4] is on record?
**A.** 86.2 nM

**Q.** And the EC50 ([2]; 72 h incubation)?
**A.** > 3000 nM

**Q.** And the Ki [3, 4]?
**A.** 701 nM

**Q.** What does the source list for `COc1cc(=O)n(C)nc1-c1cc(NS(=O)(=O)C2CCCC2)ccc1Oc1ccccc1` [Example 26, N-[3-(4-methoxy-1-methyl-6-oxo-1,6-dihydropyridazin-3-yl)-4-phenoxyphenyl]cyclopentanesulfonamide]?
**A.** Ki [1, 4]: 569 nM; EC50 ([2]; 72 h incubation): 800 nM; Ki [3, 4]: 104 nM

**Q.** Which results are given for `CCS(=O)(=O)Nc1ccc(Oc2ccc(F)cc2F)c(-c2cn(C)c(=O)cc2OCC2CC2)c1` [Example 287, N-(3-(4-(cyclopropylmethoxy)-1-methyl-6-oxo-1,6-dihydropyridin-3-yl)-4-(2,4-difluorophenoxy)phenyl)ethanesulfonamide]?
**A.** Ki [1, 4]: 6.62 nM; EC50 ([2]; 72 h incubation): 59.6 nM; Ki [3, 4]: 2.15 nM

**Q.** How did the Ki [1, 4] turn out when `Cn1cc(-c2cc(NS(C)(=O)=O)ccc2Oc2cccc(F)c2)ccc1=O` [Example 246, N-[4-(3-fluorophenoxy)-3-(1-methyl-6-oxo-1,6-dihydropyridin-3-yl)phenyl]methanesulfonamide] was run?
**A.** 43.1 nM

**Q.** And the EC50 ([2]; 72 h incubation)?
**A.** 238 nM

**Q.** And the Ki [3, 4]?
**A.** 132 nM

**Q.** Which results are given for `COc1ccccc1Oc1ccc(NS(C)(=O)=O)cc1-c1ccc(=O)n(C)c1` [Example 238, N-[4-(2-methoxyphenoxy)-3-(1-methyl-6-oxo-1,6-dihydropyridin-3-yl)phenyl]methanesulfonamide]?
**A.** Ki [1, 4]: 29.2 nM; EC50 ([2]; 72 h incubation): 643 nM; Ki [3, 4]: 49.9 nM

**Q.** What does the source list for `C=CC#Cc1ccccc1Oc1ccc(S(=O)(=O)CC)cc1-c1cn(C)c(=O)cc1O` [Example 313, 5-{2-[2-(but-3-en-1-yn-1-yl)phenoxy]-5-(ethylsulfonyl)phenyl}-4-hydroxy-1-methylpyridin-2(1H)-one]?
**A.** Ki [1, 4]: 754 nM; EC50 ([2]; 72 h incubation): 1330 nM; Ki [3, 4]: 55.2 nM

**Q.** For `CCS(=O)(=O)Nc1ccc(Oc2ccc(F)cc2F)c(-c2cn(C)c(=O)cc2OCC2CCOC2)c1` (stereo not drawn) [Example 291, N-{4-(2,4-difluorophenoxy)-3-[1-methyl-6-oxo-4-(tetrahydrofuran-3-ylmethoxy)-1,6-dihydropyridin-3-yl]phenyl}ethanesulfonamide], which Ki [1, 4] is on record?
**A.** 16.2 nM

**Q.** What about the EC50 ([2]; 72 h incubation) of the same compound?
**A.** 112 nM

**Q.** What about the Ki [3, 4] of the same compound?
**A.** 6.27 nM

**Q.** Which Ki [1, 5] does the source give for `CCOc1cc(=O)n(C)cc1-c1cc(NS(=O)(=O)CC)ccc1Oc1ccc(C#N)cc1F` [Example 408, N-[4-(4-cyano-2-fluorophenoxy)-3-(4-ethoxy-1-methyl-6-oxo-1,6-dihydropyridin-3-yl)phenyl]ethanesulfonamide] here?
**A.** 45.1 nM

**Q.** And the EC50 ([2]; 72 hours with compound)?
**A.** 115 nM

**Q.** And the Ki [3, 5]?
**A.** 19.1 nM

**Q.** For `CCS(=O)(=O)Nc1ccc(Oc2ccc(F)cc2F)c(-c2cn(C)c(=O)cc2-c2ccc(CN3CCN(C)CC3)cc2)c1` [Example 279, N-[4-(2,4-difluorophenoxy)-3-(1-methyl-4-{4-[(4-methylpiperazin-1-yl)methyl]phenyl}-6-oxo-1,6-dihydropyridin-3-yl)phenyl]ethanesulfonamide], which Ki [1, 4] is on record?
**A.** 2.73 nM

**Q.** And the EC50 ([2]; 72 h incubation)?
**A.** 45.4 nM

**Q.** What about the Ki [3, 4] of the same compound?
**A.** 1.3 nM

**Q.** What does the source list for `Cn1cc(-c2cc(NS(C)(=O)=O)ccc2OC2CCCC2)ccc1=O` [Example 248, N-[4-(cyclopentyloxy)-3-(1-methyl-6-oxo-1,6-dihydropyridin-3-yl)phenyl]methanesulfonamide]?
**A.** Ki [1, 4]: 156 nM; EC50 ([2]; 72 h incubation): 488 nM; Ki [3, 4]: 4570 nM

**Q.** For `CCOc1cc(=O)n(C)cc1-c1cc(S(C)(=O)=O)ccc1NCC1CC1` [Example 340, 5-{2-[(cyclopropylmethyl)amino]-5-(methylsulfonyl)phenyl}-4-ethoxy-1-methylpyridin-2(1H)-one], which Ki [1, 4] is on record?
**A.** 225 nM

**Q.** What about the EC50 ([2]; 72 h incubation) of the same compound?
**A.** 384 nM

**Q.** What about the Ki [3, 4] of the same compound?
**A.** 251 nM

**Q.** What does the source list for `COc1cc(=O)n(C)nc1-c1ccccc1Oc1ccc(F)cc1` [Example 33, 6-[2-(4-fluorophenoxy)phenyl]-5-methoxy-2-methylpyridazin-3(2H)-one]?
**A.** Ki [1, 4]: 3000 nM; EC50 ([2]; 72 h incubation): 4100 nM; Ki [3, 4]: 2290 nM

**Q.** What does the source list for `CCS(=O)(=O)Nc1ccc(Oc2ccc(F)cc2F)c(-c2cn(C)c(=O)cc2OCC2CCN(C)C2)c1` (stereo not drawn) [Example 323, N-[4-(2,4-difluorophenoxy)-3-{1-methyl-4-[(1-methylpyrrolidin-3-yl)methoxy]-6-oxo-1,6-dihydropyridin-3-yl]phenyl}ethanesulfonamide]?
**A.** Ki [1, 4]: 150 nM; EC50 ([2]; 72 h incubation): 1140 nM; Ki [3, 4]: 101 nM

**Q.** What does the source list for `COC(=O)CCc1ccc(-c2cc(=O)n(C)nc2-c2ccccc2Oc2ccccc2)cc1` [Example 92, methyl 3-{4-[1-methyl-6-oxo-3-(2-phenoxyphenyl)-1,6-dihydropyridazin-4-yl]phenyl}propanoate]?
**A.** Ki [1, 4]: 770 nM; EC50 ([2]; 72 h incubation): 1130 nM; Ki [3, 4]: 455 nM

**Q.** Which results are given for `CCN(CC)CC#CCOc1cc(=O)n(C)cc1-c1cc(NS(=O)(=O)CC)ccc1Oc1ccc(F)cc1F` [Example 328, N-[3-(4-{[4-(diethylamino)but-2-yn-1-yl]oxy}-1-methyl-6-oxo-1,6-dihydropyridin-3-yl)-4-(2,4-difluorophenoxy)phenyl]ethanesulfonamide]?
**A.** Ki [1, 4]: 7.1 nM; EC50 ([2]; 72 h incubation): 72.7 nM; Ki [3, 4]: 14.6 nM

**Q.** With `COc1cc(=O)n(C)nc1-c1cc(NC(C)=O)ccc1Oc1ccccc1` [Example 21, N-[3-(4-methoxy-1-methyl-6-oxo-1,6-dihydropyridazin-3-yl)-4-phenoxyphenyl]acetamide] as the compound, how does the Ki [1, 4] read?
**A.** 147 nM

**Q.** And the EC50 ([2]; 72 h incubation)?
**A.** 1340 nM

**Q.** What about the Ki [3, 4] of the same compound?
**A.** 103 nM

**Q.** For `CC(=O)c1cc(=O)n(C)nc1-c1ccccc1Oc1ccccc1` [Example 221, 5-acetyl-2-methyl-6-(2-phenoxyphenyl)pyridazin-3(2H)-one], which Ki [1, 4] is on record?
**A.** 976 nM

**Q.** What about the EC50 ([2]; 72 h incubation) of the same compound?
**A.** 7200 nM

**Q.** What about the Ki [3, 4] of the same compound?
**A.** 517 nM

**Q.** For `Cn1nc(-c2ccccc2Oc2ccccc2)c(-c2ccc(N3CCOCC3)cc2)cc1=O` [Example 149, 2-methyl-5-[4-(morpholin-4-yl)phenyl]-6-(2-phenoxyphenyl)pyridazin-3(2H)-one], which Ki [1, 4] is on record?
**A.** 213 nM

**Q.** What about the EC50 ([2]; 72 h incubation) of the same compound?
**A.** 384 nM

**Q.** What about the Ki [3, 4] of the same compound?
**A.** 259 nM

**Q.** With `CCOc1cc(=O)n(C)cc1-c1cc(S(=O)(=O)N2CCc3ccccc32)ccc1OCC1CC1` [Example 397, 5-[2-(cyclopropylmethoxy)-5-(2,3-dihydro-1H-indol-1-ylsulfonyl)phenyl]-4-ethoxy-1-methylpyridin-2(1H)-one] as the compound, how does the Ki [1, 5] read?
**A.** 75.2 nM

**Q.** And the EC50 ([2]; 72 hours with compound)?
**A.** 86.6 nM

**Q.** And the Ki [3, 5]?
**A.** 8.84 nM

**Q.** For `Cn1cc(-c2cc(NS(C)(=O)=O)ccc2Oc2ccc(C(F)(F)F)cc2)ccc1=O` [Example 231, N-{3-(1-methyl-6-oxo-1,6-dihydropyridin-3-yl)-4-[4-(trifluoromethyl)phenoxy]phenyl}methanesulfonamide], which Ki [1, 4] is on record?
**A.** 44.6 nM

**Q.** What about the EC50 ([2]; 72 h incubation) of the same compound?
**A.** 911 nM

**Q.** What about the Ki [3, 4] of the same compound?
**A.** 539 nM

**Q.** Which Ki [1, 4] does the source give for `CCS(=O)(=O)Nc1ccc(Oc2ccc(F)cc2F)c(-c2cn(C)c(=O)cc2OC2COC2)c1` [Example 316, N-{4-(2,4-difluorophenoxy)-3-[1-methyl-4-(oxetan-3-yloxy)-6-oxo-1,6-dihydropyridin-3-yl]phenyl}ethanesulfonamide] here?
**A.** 3.9 nM

**Q.** And the EC50 ([2]; 72 h incubation)?
**A.** 24.7 nM

**Q.** And the Ki [3, 4]?
**A.** 0.809 nM

**Q.** Which results are given for `COC(=O)c1cc(=O)n(C)nc1-c1ccccc1Oc1ccccc1` [Example 218, methyl 1-methyl-6-oxo-3-(2-phenoxyphenyl)-1,6-dihydropyridazine-4-carboxylate]?
**A.** Ki [1, 4]: 778 nM; EC50 ([2]; 72 h incubation): 9700 nM; Ki [3, 4]: 1140 nM

**Q.** For `CCS(=O)(=O)Nc1ccc(Oc2ccc(F)cc2F)c(-c2cn(C)c(=O)cc2-c2cnn(CCN3CCOCC3)c2)c1` [Example 345, N-[4-(2,4-difluorophenoxy)-3-(1-methyl-4-{1-[2-(morpholin-4-yl)ethyl]-1H-pyrazol-4-yl}-6-oxo-1,6-dihydropyridin-3-yl)phenyl]ethanesulfonamide], which Ki [1, 4] is on record?
**A.** 10.2 nM

**Q.** And the EC50 ([2]; 72 h incubation)?
**A.** 126 nM

**Q.** And the Ki [3, 4]?
**A.** 5.44 nM

**Q.** What does the source list for `CCOc1cc(=O)n(C)cc1-c1cc(NC(=O)c2ccc(COc3ccccc3)cc2)ccc1Oc1ccc(F)cc1F` [Example 297, N-[4-(2,4-difluorophenoxy)-3-(4-ethoxy-1-methyl-6-oxo-1,6-dihydropyridin-3-yl)phenyl]-4-(phenoxymethyl)benzamide]?
**A.** Ki [1, 4]: > 238 nM; EC50 ([2]; 72 h incubation): 2420 nM; Ki [3, 4]: 256 nM

**Q.** Which Ki [1, 4] does the source give for `CCOc1cc(=O)n(C)cc1-c1cc(NC(=O)CCC(C)C)ccc1Oc1ccc(F)cc1F` [Example 298, N-[4-(2,4-difluorophenoxy)-3-(4-ethoxy-1-methyl-6-oxo-1,6-dihydropyridin-3-yl)phenyl]-4-methylpentanamide] here?
**A.** 143 nM

**Q.** What about the EC50 ([2]; 72 h incubation) of the same compound?
**A.** 637 nM

**Q.** What about the Ki [3, 4] of the same compound?
**A.** 54.5 nM

**Q.** Which Ki [1, 4] does the source give for `COc1cc(-c2cc(=O)n(C)nc2-c2cc(NS(C)(=O)=O)ccc2Oc2ccccc2)ccn1` [Example 58, N-{3-[4-(2-methoxypyridin-4-yl)-1-methyl-6-oxo-1,6-dihydropyridazin-3-yl]-4-phenoxyphenyl}methanesulfonamide] here?
**A.** 264 nM

**Q.** And the EC50 ([2]; 72 h incubation)?
**A.** 444 nM

**Q.** And the Ki [3, 4]?
**A.** 63.5 nM

**Q.** Which Ki [1, 5] does the source give for `CCS(=O)(=O)Nc1ccc(Oc2ccc(F)cc2F)c(-c2cn(C)c(=O)cc2-c2ccco2)c1` [Example 392, N-{4-(2,4-difluorophenoxy)-3-[4-(furan-2-yl)-1-methyl-6-oxo-1,6-dihydropyridin-3-yl]phenyl}ethanesulfonamide] here?
**A.** 22 nM

**Q.** And the EC50 ([2]; 72 hours with compound)?
**A.** 69.2 nM

**Q.** What about the Ki [3, 5] of the same compound?
**A.** 4.29 nM
